Measured values reported in PMC5681660, “Reduced hepatitis B and D viral entry using clinically applied drugs as novel inhibitors of the bile acid transporter NTCP” (Scientific Reports, 2017).
Counter-ions that a name gives are not always drawn. Like-named read-outs stand apart in the source and are kept apart here.

Tests used:
human NTCP [1] = target: T1, human NTCP (Homo sapiens, UniProt Q14973); assay: Screening taurocholate uptake assay (96-well, [14C]taurocholate, 10 µM drug)
T1 sequence (Q14973 1-349): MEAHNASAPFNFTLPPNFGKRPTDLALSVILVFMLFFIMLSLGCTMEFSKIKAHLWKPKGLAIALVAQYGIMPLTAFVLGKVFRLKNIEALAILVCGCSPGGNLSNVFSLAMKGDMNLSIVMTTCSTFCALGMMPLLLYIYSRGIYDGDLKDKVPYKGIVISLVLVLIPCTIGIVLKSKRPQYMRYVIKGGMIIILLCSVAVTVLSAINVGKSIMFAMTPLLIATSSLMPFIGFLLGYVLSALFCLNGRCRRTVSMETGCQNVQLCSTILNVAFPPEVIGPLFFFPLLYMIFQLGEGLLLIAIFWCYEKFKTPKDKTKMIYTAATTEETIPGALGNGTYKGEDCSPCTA

human NTCP [2] = target: T1, human NTCP; assay: Screening fluorescent competitive Myrcludex B-FITC binding assay (96-well, 10 µM drug)
[3] = combined ranking from functional and binding screening assays
[4] = screen, 10 µM drug, taurocholate uptake
[5] = screen, 10 µM drug, Myrcludex B-FITC binding
[6] = Prestwick library screen, 10 µM drug, B-score of taurocholate uptake
[7] = combined ranking from functional and binding assay B-scores
[8] = Prestwick library screen, 10 µM drug, B-score of Myrcludex B-FITC binding
[9] = Prestwick library screen, taurocholate uptake, 10 µM drug
[10] = ranking score beside the functional and binding assay B-scores of the screen
[11] = Prestwick library screen, Myrcludex B-FITC binding, 10 µM drug

SMILES	B-score functional assay (human NTCP [1]; [6])	Ranking score (human NTCP [1]; [7])	B-score binding assay (human NTCP [2]; [8])	B-score functional assay (human NTCP [1]; [9])	Ranking score (human NTCP [1]; [10])	B-score binding assay (human NTCP [2]; [11])	further results
CC(=O)[C@H]1CC[C@H]2[C@@H]3CC=C4C[C@@H](O)CC[C@]4(C)[C@H]3CC[C@]12C [Pregnenolone]							Ranking score (human NTCP [1]; [3]): 297.104; B-score functional assay (human NTCP [1]; [4]): -2.394; B-score binding assay (human NTCP [2]; [5]): 0.35
CC(Cc1ccccc1)NCCC(c1ccccc1)c1ccccc1 (centres unmarked) [Prenylamine lactate]	1.102	975.256	0.388				
CS(=O)(=O)O.OC(CCN1CCCCC1)(c1ccccc1)c1ccccc1 [Pridinol methanesulfonate salt]	1.063	875.882	0.059				
CCCNC(C)C(=O)Nc1ccccc1C (centres unmarked) [Prilocaine hydrochloride]							Ranking score (human NTCP [1]; [3]): 304.329; B-score functional assay (human NTCP [1]; [4]): 0.027; B-score binding assay (human NTCP [2]; [5]): -1.737
COc1cc(NC(C)CCCN)c2ncccc2c1 (centres unmarked) [Primaquine diphosphate]	4.393	1046.51	0.361				
CCC1(c2ccccc2)C(=O)NCNC1=O [Primidone]				1.471	845.018	-0.009	
CCCN(CCC)S(=O)(=O)c1ccc(C(=O)O)cc1 [Probenecid]				-0.194	677.591	0.597	
CC(C)(Sc1cc(C(C)(C)C)c(O)c(C(C)(C)C)c1)Sc1cc(C(C)(C)C)c(O)c(C(C)(C)C)c1 [Probucol]	0.089	969.367	3.305				
CCN(CC)CCNC(=O)c1ccc(N)cc1 [Procainamide hydrochloride]				0.646	672.44	-0.246	
CCN(CC)CCOC(=O)c1ccc(N)cc1 [Procaine hydrochloride]							Ranking score (human NTCP [1]; [3]): 459.439; B-score functional assay (human NTCP [1]; [4]): -1.181; B-score binding assay (human NTCP [2]; [5]): 0.574
CNNCc1ccc(C(=O)NC(C)C)cc1 [Procarbazine hydrochloride]							Ranking score (human NTCP [1]; [3]): 345.534; B-score functional assay (human NTCP [1]; [4]): -0.792; B-score binding assay (human NTCP [2]; [5]): -0.424
[H]/N=C(\N/C(=N/[H])Nc1ccc(Cl)cc1)NC(C)C [Proguanil hydrochloride]							Ranking score (human NTCP [1]; [3]): 309.176; B-score functional assay (human NTCP [1]; [4]): -0.025; B-score binding assay (human NTCP [2]; [5]): -1.489
CN(C)CCCN1c2ccccc2Sc2ccccc21 [Promazine hydrochloride]							B-score functional assay (human NTCP [1]): 0.194; Ranking score (human NTCP [1]): 494.272; B-score binding assay (human NTCP [2]): -0.725
CC(CN1c2ccccc2Sc2ccccc21)N(C)C (centres unmarked) [Promethazine hydrochloride]	-0.002	866.133	1.811				
CC(C)NCC(O)c1ccc2ccccc2c1.Cl (centres unmarked) [Pronethalol hydrochloride]							Ranking score (human NTCP [1]; [3]): 409.31; B-score functional assay (human NTCP [1]; [4]): -0.999; B-score binding assay (human NTCP [2]; [5]): 0.008
CCCNCC(O)COc1ccccc1C(=O)CCc1ccccc1 (centres unmarked) [Propafenone hydrochloride]				-0.211	771.984	2.716	
CCCOc1ccc(C(=O)OCCN(CC)CC)cc1N [Proparacaine hydrochloride]	0.236	984.211	1.832				
CC(C)c1cccc(C(C)C)c1O [Propofol]							B-score functional assay (human NTCP [1]): -4.147; Ranking score (human NTCP [1]): 144.551; B-score binding assay (human NTCP [2]): -0.036
CCCc1cc(=O)[nH]c(=S)[nH]1 [Propylthiouracil]				0.437	823.744	0.14	
CCCc1cc(C(N)=S)ccn1 [Prothionamide]				-0.17	776.121	2.241	
CNCCCC1c2ccccc2C=Cc2ccccc21 [Protriptyline hydrochloride]							Ranking score (human NTCP [1]; [3]): 390.896; B-score functional assay (human NTCP [1]; [4]): -0.483; B-score binding assay (human NTCP [2]; [5]): -0.431
Cc1ncc(CO)c(CO)c1O [Pyridoxine hydrochloride]	0.632	1004.23	1.062				

SMILES	B-score functional assay (human NTCP [1]; [6])	Ranking score (human NTCP [1]; [7])	B-score binding assay (human NTCP [2]; [8])	B-score functional assay (human NTCP [1]; [9])	Ranking score (human NTCP [1]; [10])	B-score binding assay (human NTCP [2]; [11])	further results
COc1ccc(CN(CCN(C)C)c2ccccn2)cc1 [Pyrilamine maleate]							Ranking score (human NTCP [1]; [3]): 458.048; B-score functional assay (human NTCP [1]; [4]): -0.86; B-score binding assay (human NTCP [2]; [5]): 0.121
CCN(CC)CCCC(C)Nc1c2ccc(Cl)cc2nc2ccc(OC)cc12.Cl.Cl (centres unmarked) [Quinacrine dihydrochloride hydrate]							Ranking score (human NTCP [1]; [3]): 399.375; B-score functional assay (human NTCP [1]; [4]): -2.093; B-score binding assay (human NTCP [2]; [5]): 7.101
CCOC(=O)[C@H](CCc1ccccc1)N[C@@H](C)C(=O)N1Cc2ccccc2C[C@H]1C(=O)O [Quinapril HCl]	2.971	1103.9	0.741				
CCC1NC(=O)c2cc(S(N)(=O)=O)c(Cl)cc2N1 (centres unmarked) [Quinethazone]				1.708	787.128	-0.124	
C=C[C@H]1CN2CC[C@H]1C[C@@H]2[C@@H](O)c1ccnc2ccc(OC)cc12.Cl.O [Quinidine hydrochloride monohydrate]					834.825	-0.002	
O=C(O)/C=C\C(=O)O.O=C(O)/C=C\C(=O)O.c1ccc2nc(N3CCNCC3)ccc2c1 [Quipazine dimaleate salt]	0.305	954.17	1.213				
COCCCOc1ccnc(C[S+]([O-])c2nc3ccccc3[nH]2)c1C (centres unmarked) [Rabeprazole Sodium salt]				1.371	764.457	-0.144	
CCN1CCC[C@H]1CNC(=O)c1c(O)c(Cl)cc(Cl)c1OC [Raclopride]	0.507	891.19	0.374				
Cc1nc2ccc(CN(C)c3ccc(C(=O)N[C@@H](CCC(=O)O)C(=O)O)s3)cc2c(=O)[nH]1 [Raltitrexed]							Ranking score (human NTCP [1]; [3]): 413.367; B-score functional assay (human NTCP [1]; [4]): -1.033; B-score binding assay (human NTCP [2]; [5]): 0.04
CCOC(=O)[C@H](CCc1ccccc1)N[C@@H](C)C(=O)N1[C@H](C(=O)O)C[C@@H]2CCC[C@@H]21 [Ramipril]	0.852	1101.41	1.901				
C#CCN[C@@H]1CCc2ccccc21 [Rasagiline]				-0.098	667.796	0.275	
O=C(NC(Cc1cc(=O)[nH]c2ccccc12)C(=O)O)c1ccc(Cl)cc1 (centres unmarked) [Rebamipide]	0.089	955.076	2.49				
CCOc1ccccc1OC(c1ccccc1)C1CNCCO1.CS(=O)(=O)O (centres unmarked) [Reboxetine mesylate]				1.175	814.737	-0.028	
COC(=O)[C@H]1[C@H]2C[C@@H]3c4[nH]c5cc(OC)ccc5c4CCN3C[C@H]2C[C@@H](OC(=O)c2cc(OC)c(OC)c(OC)c2)[C@@H]1OC [Reserpine]				0.519	842.122	0.147	
NC(=O)c1ncn([C@@H]2O[C@H](CO)[C@@H](O)[C@H]2O)n1 [Ribavirin]				0.312	712.803	-0.029	
NC[C@H]1O[C@H](O[C@H]2[C@H](O[C@@H]3O[C@H](CO)[C@@H](O)[C@H]3O)[C@@H](O)[C@H](N)C[C@@H]2N)[C@H](N)[C@@H](O)[C@@H]1O.O=S(=O)(O)O [Ribostamycin sulfate salt]	0.797	1035.72	1.097				
CO[C@H]1/C=C/O[C@@]2(C)Oc3c(C)c(O)c4c(c3C2=O)C2=NC3(CCN(CC(C)C)CC3)NC2=C(NC(=O)/C(C)=C\C=C\[C@H](C)[C@H](O)[C@@H](C)[C@@H](O)[C@@H](C)[C@H](OC(C)=O)[C@@H]1C)C4=O [Rifabutin]				1.309	731.029	-0.23	
CC(N)C12CC3CC(CC(C3)C1)C2 (centres unmarked) [Rimantadine Hydrochloride]				0.074	753.923	0.171	
CCC(=O)[C@@]1(C)[C@H](C)C[C@H]2[C@@H]3CCC4=CC(=O)C=C[C@]4(C)[C@H]3[C@@H](O)C[C@@]21C [Rimexolone]							Ranking score (human NTCP [1]; [3]): 362.647; B-score functional assay (human NTCP [1]; [4]): -0.597; B-score binding assay (human NTCP [2]; [5]): -0.495
O.O=P(O)(O)C(O)(Cc1cccnc1)P(=O)(O)O [Risedronic acid monohydrate]	1.315	1045.06	0.727				
Cc1nc2n(c(=O)c1CCN1CCC(c3noc4cc(F)ccc34)CC1)CCCC2 [Risperidone]	0.025	888.472	1.724				
CC(NCCc1ccc(O)cc1)C(O)c1ccc(O)cc1 (centres unmarked) [Ritodrine hydrochloride]	1	1111.92	1.66				
